The source of these data is PubChem BioAssay (NCI).

Common to all, as to assay: growth of human tumour cells (NCI), 48 h
The test system of assay [1] is COLO 205 colon.
Assay [2] relates to SNB-75 CNS.
Assay [3] concerns HL-60(TB) leukemia.
Assay [4] relates to HCT-116 colon.
The subject of assay [5] is IGROV1 ovarian.
For assay [6], the system named is SK-MEL-28 melanoma.
The subject of assay [7] is HOP-62 NSCLC.
Assay [8] relates to HOP-92 NSCLC.
For assay [9], the system named is U251 CNS.
Assay [10] has as its system SF-295 CNS.

Values joined by “and” are separate entries in the source; they are usually repeats but may differ in a detail not shown here. Equal values may be shown once.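 Dose response: 5 concentrations. Exposure: 48 h. Format: 96-well plates. Endpoint: linear interpolation; highest concentration if not reached. Here, GI50 denotes the concentration required for 50% inhibition of growth. TGI is the concentration that stops growth completely.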

For `CN[C@]12CC3(C=CC(=O)C=C3)O[C@@]1(Cc1ccc(OC)cc1)N(C)C(=O)N2`, the GI50 in [1] is 2.53 µM; in [2], 10.4 µM; in assay [3] it was 1.84 µM; in assay [4], 0.812 µM; in assay [5], 1.78 µM; in assay [6], 2.53 µM. Moreover, the GI50 in [7] is 2.48 µM; in [8] it was 2.15 µM; in [9] it was 1.85 µM; in [10], 3.74 µM. Also, the TGI in assay [1] turned out to be 6.66 µM; in assay [2] it was 23.3 µM; in assay [3] it was 6.49 µM; in assay [4], 7.98 µM; in [5] it was 4.1 µM; in assay [6], 6.75 µM. Further, the TGI in assay [7] was determined as 11.2 µM; in [8] it was 4.73 µM; in assay [9] it was 3.99 µM; in assay [10], 13.6 µM.
For the molecule `CCOC(=O)c1c(C)nc2ccc(Cl)cc2c1-c1ccccc1`, the GI50 in assay [1] is 17.9 µM; in assay [2], 21.8 µM; in assay [3], 14.2 µM; in assay [4], 12.3 µM; in assay [5], 16.6 µM; in assay [6] it was 19.6 µM. The GI50 in assay [7] is 15 µM; in assay [8], 1.52 µM; in [9] it was 19.1 µM; in assay [10], 19.4 µM. In addition, the TGI stood at 53.4 µM in assay [1]; 64.9 µM in assay [2]; 41 µM in assay [3]; 28.8 µM in [4]; 61.1 µM in [5]; 52.4 µM in assay [6]. In addition, the TGI amounted to 31.7 µM in [7], 20.8 µM in [8], 40.6 µM in [9] and 46.8 µM in assay [10].
For `COc1ccc(N(CC(=O)NCCC[Te]c2ccccc2)C(=O)CCSC2=C(C)C(=O)c3ccccc3C2=O)cc1`, the GI50 in assay [1] is 1.99 µM; in assay [2] it was 1.17 µM; in assay [3], 2.97 µM; in [4], 0.406 µM; in [5], 0.888 µM; in assay [6], 2.48 µM. Besides, the GI50 in assay [7] was 0.582 µM; in assay [8], 1.72 µM; in assay [9], 0.553 µM; in assay [10], 0.232 µM. For the same molecule, the TGI in [1] is 3.64 µM; in assay [2], 7.64 µM; in assay [3] it was over 26.1 µM; in assay [4], 1.72 µM; in assay [5], 2.35 µM; in [6], 5.87 µM. Further, the TGI in [7] stood at 1.58 µM; in assay [8], 4.44 µM; in assay [9], 2.32 µM; in assay [10], 0.704 µM.
As for `COc1cc(/C=C2\CN(C)C/C(=C\c3cc(OC)c(OC)c(OC)c3)C2=O)cc(OC)c1OC`, the GI50 in [1] is 0.23 µM; in [2] it was 0.667 µM; in assay [3] it was 0.34 µM; in assay [4] it was 0.154 µM; in assay [5], 0.413 µM; in [6] it was 0.2 µM. Besides, the GI50 is 0.36 µM in assay [7], 0.774 µM in assay [8], 0.257 µM in [9] and 0.319 µM in assay [10]. Besides, the TGI was found to be 0.461 µM in [1]; 2.48 µM in [2]; 1.67 µM in [3]; 0.335 µM in assay [4]; 1.73 µM in assay [5]; 0.429 µM in [6]. For the same molecule, the TGI is 1.13 µM in assay [7], 2.8 µM in assay [8], 0.746 µM in assay [9] and 1.12 µM in assay [10].
Turning to `CC(=O)NC(CCCCNC(=O)N(CCCl)N=O)C(=O)NCc1ccccc1` (stereo not given), the TGI in assay [1], in assay [2], in assay [3], in assay [4], in [5] and in assay [6] was over 100 µM each time. Also, the TGI in assay [7], in [8], in assay [9] and in assay [10] was over 100 µM in each case.
As for `CNNCc1ccc(C(=O)NC(C)C)cc1`, the TGI in assay [1], in assay [2], in assay [3], in assay [4], in assay [5] and in assay [6] was over 500 µM in each case. Besides, the TGI in assay [7] was over 500 µM; in assay [8], 391 µM and > 500 µM; in assay [9], over 500 µM; in assay [10] it was over 500 µM. Moreover, the GI50 in [2] was over 500 µM; in assay [5] it was over 500 µM; in assay [7], over 500 µM; in [8] it was 459 µM; in assay [9], over 500 µM.
For `COc1cc(-c2cc(=O)c3ccccc3o2)ccc1N`, the TGI was over 100 µM in [1]; 83.2 µM in [2]; 71.5 µM in assay [3]; over 100 µM in assay [4]; over 100 µM in assay [5]; over 100 µM in assay [6]. The TGI in assay [7], in [8], in assay [9] and in assay [10] was over 100 µM throughout.
As for `O=c1c2ccccc2nc(-c2ccc(Br)cc2)n1NC1OC(CO)C(O)C(O)C1O` (stereo not given), the TGI in [1], in assay [2], in assay [3], in assay [4], in assay [5] and in assay [6] was over 100 µM throughout. For the same molecule, the TGI in [7], in assay [8], in assay [9] and in assay [10] was over 100 µM each time.
For the molecule `O=C(/C=C\c1cccc2ccccc12)c1cccs1`, the TGI is 29.3 µM in assay [1]; 61.3 µM in assay [2]; 15.6 µM in assay [3]; 10.7 µM in assay [4]; 23.3 µM in assay [5]; 28 µM in assay [6]. Moreover, the TGI in [7] came to 41.5 µM; in assay [8], 25.8 µM; in [9], 16.5 µM; in assay [10], 34.6 µM.
